# Results reported in patent US20110195910A1, “USE OF TOCOTRIENOL COMPOSITION FOR THE PREVENTION OF CANCER” (DAVOS LIFE SCIENCE PTE. LTD., priority 2008, published 2011).
# Columns and labels:
# PC-3 cells = assay: CSC marker and signalling expression in PC-3 cells (western blotting, flow cytometry, RT-PCR); type: cell-based
# Method: 5.1.5 Western blotting was carried out as described above under 1.1.5. The membrane was incubated with primary antibodies directed against CD133 (Miltenyi Biotec, Auburn, Calif.), Bcl-2, PARP, cleaved caspase 3, 7, 9 (Cell Signaling, Technology Inc, Beverly, Mass.), CD44 and β-actin (Santa Cruz Biotechnology, Santa Cruz, Calif.). After washing with TBS-T, the membrane was incubated with secondary antibody against either mouse or rabbit IgG and the signals were visualized using ECL plus western blotting system (Amersham, Piscataway, N.J.).
# 5.1.6 Semi-quantitative RT-PCR—Total RNA was isolated using TRIZOL® reagent (Invitrogen, Carlsbad, Calif.) following the manufacturer's instruction. cDNA was synthesized by using SuperScript First-Strand Synthesis System for RT (Invitrogen, Carlsbad, Calif.) and PCR was carried out with GeneAmp® PCR System 9700 (Applied Biosystems, Foster City, Calif.). The primers sequence and PCR condition for RT-PCR of CD133 were previously described. The amounts of mRNA were quantified relative to GAPDH.
# 5.1.8 Flow cytometry—Flow cytometry analysis of the CD44 positive cells were performed with procedure known in the art. Briefly, cells were incubated in PBS containing 2% FBS with PE-conjugated anti-human CD44 antibody. Isotype-matched mouse immunoglobulins served as controls. Samples were then analyzed using a FACS Calibur flow cytometer and CellQuest software (BD Biosciences, San Jose, Calif., USA).
# [1] = system: bladder cancer cell line MGH-U1; assay: Spheroid formation assay, MGH-U1 cells; type: cell-based
# Method: 5.1.7 Spheroid formation assay—Spheroid formation assay was performed with a protocol modified from previous study (Folkins C, p3560). Briefly, cells were first trypsinized, washed with 1× PBS and resuspended in DMEM F12 medium. Two hundred cells were added into each well of a 24-well-plate pre-coated with polyHEMA (Sigma, St. Louis, Mo.). Cells will be grown in DMEM/F12 mem (Invitrogen, Carlsbad, Calif.) supplemented with 4 μg/mL insulin (Sigma, St. Louis, Mo.), B27 (Invitrogen, Carlsbad, Calif.), 20 ng/mL EGF (Sigma, St. Louis, Mo.), and 20 ng/mL basic FGF (Invitrogen, Carlsbad, Calif.). Fresh medium with the above supplements was added every day. γ-T3 was added at indicated time points and the number of spheroids was counted at day 14 of the assay or at the end of the treatment. Each experiment was repeated in triplicates and each data point represented the mean and standard derivation.
# [2] = γ-T3 level in tumors and organs by HPLC; type: in vivo, BALB/c athymic nude mice; details: 50 mg/kg/day γ-T3 for 10 days
# Method: Nude mice bearing similar tumor sizes of about 100 mm^3 (after 2 weeks inoculation) were selected and randomly divided into three groups (n=5 per group); control (DMSO as vehicle), γ-T3 (50 mg/kg/d) and combination treatment of γ-T3 and Docetaxel (50 mg of γ-T3/kg/d and 7.5 mg of Docetaxel/kg/wk). The mice were weighed as daily basic and the tumors were measured using a Digital Carbon Fiber Caliper (Fisher scientific, Pittsburgh, Pa.) at the same time. The tumor volume was calculated as 4/3*π*(mean diameter/2)^3. The mice were dosed 5 times a week for 2 weeks. After 10 days of treatment, the mice were euthanized by CO2 inhalation. Blood samples were collected through cardiac bleeding using 25-gauge needle. Blood samples were incubated at room temperature for 30 min, followed by centrifugation at 4400 rpm, 4° C. for 30 min. Serum, as the supernatant, was separated from plasma and stored at −80° C. Tumor, liver, kidney, spleen, lung and heart were harvested. Part of the tumors was fixed in 10% neutral buffered formalin solution. […]
# (§1) 4.1.7 Determination of γ-Tocotrienol level by high performance liquid chromatography—A normal phase of HPLC method was performed as a modification of procedures known in the art. […] The absorbance of γ-T3 was monitored with a […] set at an excitation wavelength of 290 nm and emission wavelength of 360 nm.
# [3] = Pharmacokinetics of γ-tocotrienol in mice (serum, HPLC); type: in vivo, C57BL/6 black mice; details: 1 mg γ-T3 i.p.
# Method: 4.1.4 Pharmacokinetics of γ-Tocotrienol in Mice—C57BL/6 black mice were purchased from The Jackson Laboratory (Bar Harbor, Me., USA). Forty 5-week old mice were given a single dose i.p injection containing 1 mg of γ-T3. Five mice were sacrificed at different time points (10 min, 30 min, 1 h, 3 h, 6 h, 24 h, 48 h and 72 h). Blood samples were collected through cardiac bleeding. To isolate the serum, blood samples were incubated at room temperature for 30 min, followed by centrifugation at 4400 rpm, 4° C. for 30 min. γ-T3 concentration in serum was analyzed using HPLC method below.
# 4.1.6 γ-Tocotrienol Extraction from Serums, Tumors and Organs—Serums were thawed and sonicated in an ultrasonic bath (Lab Companion, Vernon Hills, Ill., USA) for 5 min, followed by vortexing for 10 s. 100 μl of serum was transferred into IWAKI Pyrex glass tube (Jawa Tengah, Indonesia) containing 900 μl of water. For the tumors and organs preparation, the tissues were homogenized in 1 ml of water using borosilicate glass homogenizer (Fisher scientific, Pittsburgh, Pa.), followed by transferring to Pyrex glass tube. 5 μl of δ-T3 with purity 99% (100 mg of δ-T3 dissolved in 1 ml of ethanol) was used as an internal standard solution and was spiked into the mixture. The tube was vortexed for 10 s and sonicated for 2 min. 4 ml of the butylated hydroxytoluene (BHT) solution (5 mg of BHT in 100 ml of heptane) was added into the tube to minimize the oxidation of target analytes. Liquid-liquid extraction was performed by vortexing vigorously for 10 s. After liquid-liquid extraction, the tubes were centrifuged at 4000 rpm for 5 min in Heraeus Multifuge 3-SR Centrifuge (Newport Pagnell, Buckinghamshire, UK). 3.9 ml of the organic layer was transferred into another Pyrex tube. […]
# as §1
smiles,measurement,setting,value
"CC(C)=CCC/C(C)=C/CC/C(C)=C/CCC1(C)CCc2cc(O)c(C)c(C)c2O1 (centres unmarked) [γ-T3, 7,8-dimethyltocotrienol]",population of CD44+ PC-3 cells (flow cytometry),"PC-3 cells; 5 μg/ml, 24 hrs",found to decrease
same,CD133 mRNA level,"PC-3 cells; 2.5 and 5 μg/ml, 48 and 72 hrs",decrease of CD133 mRNA
same,protein expression of CD44 (CD133 similar),"PC-3 cells; PC-3, 2.5 & 5 μg/ml, 24, 48 and 72 hours",significantly down regulated
same,expression of AKT,"PC-3 cells; low dose, 0 to about 5 μg/ml",downregulated
same,expression of Oct3/4 and Nestin,"PC-3 cells; low dose, 0 to about 5 μg/ml",upregulated
same,inhibition in spheroid formation,[1],100%
same,tumor γ-T3 amount relative to other internal organs,[2],at least two-fold
same,γ-T3 concentration within the tumors,[2],0.15±0.03 mg of γ-T3 per gram of wet weight
same,time the plasma level remains constant,[3],at least 72 hours
same,"plasma γ-T3 level, starting value",[3]; before the fall,260 ppm
same,plasma γ-T3 level,[3]; within 30 min after administration,50 ppm
